The values that follow come from US20260138978A1, “POSITIVE ALLOSTERIC MODULATORS OF THE MUSCARINIC ACETYLCHOLINE RECEPTOR M1” (Vanderbilt University, priority 2022, published 2026).

The target of experiment [1] is T1, human mAChRM1 (Homo sapiens, UniProt P11229).
T1 construct: host or cells: CHO-K1
T1 sequence (P11229 1-460): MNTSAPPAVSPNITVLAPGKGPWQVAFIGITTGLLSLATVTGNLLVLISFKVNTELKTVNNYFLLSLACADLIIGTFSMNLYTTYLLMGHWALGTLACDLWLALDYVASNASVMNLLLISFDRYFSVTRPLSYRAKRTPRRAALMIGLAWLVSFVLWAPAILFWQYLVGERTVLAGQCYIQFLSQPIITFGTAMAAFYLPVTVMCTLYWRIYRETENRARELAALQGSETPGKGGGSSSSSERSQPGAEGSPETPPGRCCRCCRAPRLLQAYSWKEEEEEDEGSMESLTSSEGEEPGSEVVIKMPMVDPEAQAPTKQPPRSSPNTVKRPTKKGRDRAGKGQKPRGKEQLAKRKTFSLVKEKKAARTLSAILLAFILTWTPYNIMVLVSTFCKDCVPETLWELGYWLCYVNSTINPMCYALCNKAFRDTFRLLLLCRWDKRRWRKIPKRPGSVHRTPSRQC
Briefly: mAChR M1 cell-based functional assay (calcium mobilization), agonist activity upon compound addition, Emax relative to acetylcholine maximum. As to conditions: for EC50 / Agonist Activity Human M1 EC50: calcium mobilization upon compound addition; for Emax: relative to the maximum for acetylcholine. An excerpt:
Lack of agonist activity may be measured as weak or no increase in calcium fluorescence in mAChRM1-transfected CHO-K1 cells in the presence of the compound, compared to the response of equivalent CHO-K1 cells in the absence of the compound. Lack of mAChRM1 agonist activity may be determined as a percent response relative to acetylcholine. For example, a disclosed compound may have less than or equal to 30%, 25%, 20%, 15%, 10%, 5%, or 1% mAChRM1 agonist activity relative to acetylcholine. A disclosed compound may have substantially no mAChRM1 agonist activity. […] The absence of mAChRM1 agonist activity may contribute to the avoidance of cholinergic adverse effect liability.
(§1) Chinese hamster ovary (CHO-K1) cells stably expressing rat (r)M1 were purchased from the American Type Culture Collection and cultured according to their indicated protocol. CHO cells stably expressing human (h)M2, hM3, and hM5 were described previously (Levey, et al., 1991); hM1 and hM4 cDNAs were purchased from Missouri S&T cDNA Resource; rM4 cDNA was provided by T. I. Bonner (National Institutes of Health, Bethesda, MD). rM2 and rM3 were cloned from a rat brain cDNA library and sequence verified. hM1, rM2, rM3, hM4, and rM4 cDNAs were used to stably transfect CHO-K1 cells purchased from the American Type Culture Collection using Lipofectamine 2000. To make stable rM2, hM2, rM3, hM4. and rM4 cell lines for use in calcium mobilization assays, these cells also were stably transfected with a chimeric G-protein (Gqi5) (provided by B. R. Conklin, University of California, San Francisco) using Lipofectamine 2000. rM1, hM1, rM3, hM3, rM5, and hM5 cells were grown in Ham's F-12 medium containing 10% heat-inactivated fetal bovine serum (FBS), 20 mM HEPES, and 50 μg/mL G418 sulfate. rM2-Gqi5, hM2-Gqi5, and hM4-Gqi5 cells were grown in the same medium also containing 500 µg/mL Hygromycin B. Stable rM4-Gqi5 cells were grown in DMEM containing 10% heat-inactivated FBS, 20 mM HEPES, 400 μg/mL G418 sulfate, and 500 μg/mL Hygromycin B.
(§2) For high throughput measurement of agonist-evoked increases in intracellular calcium, CHO-K1 cells stably expressing muscarinic receptors were plated in growth medium lacking G418 and hygromycin at 15,000 cells/[…] in Greiner 384-well black-walled, tissue culture (TC)-treated, clear-bottom plates (VWR). Cells were incubated overnight at 37° C. and 5% CO2. The next day, cells were washed using an ELX 405 (BioTek) with four washes (80 μL) of assay buffer then aspirated to 20 μL. Next, 20 μL of 16 μM Fluo-4/acetoxymethyl ester (Invitrogen, Carlsbad, CA) prepared as a 2.3 mM stock in DMSO and mixed in a 1:1 ratio with 10% (w/v) Pluronic F-127 and diluted in assay buffer was added to the wells and the cell plates were incubated for 50 min at 37° C. and 5% CO2. Dye was removed by washing with the ELX 405 (four 80 μL washes of assay buffer) then aspirated to 20 μL. Compound master plates were formatted in an 11 point CR^c format (1:3 dilutions) in 100% DMSO with a starting concentration of 10 mM using the BRAVO liquid handler (Agilent). Test compound CRCs were then transferred to daughter plates (240 nL) using the Echo acoustic plate reformatter (Labcyte, Sunnyvale, CA) and then diluted into assay buffer ([…]) to a 2× stock using a Thermo Fisher Combi (Thermo Fisher Scientific, Waltham, MA).
Calcium flux was measured using the Functional Drug Screening System (FDSS) 6000 (Hamamatsu Corporation, Tokyo, Japan) as an increase in the fluorescent static ratio. Compounds were applied to cells (20 μL, 2×) using the automated system of the FDSS 6000 at 4 s into the 300 s protocol and the data were collected at 1 Hz. […] Agonist activity was analyzed as a concentration-dependent increase in calcium mobilization upon compound addition. Emax values for agonist activity are expressed relative to the maximum for acetylcholine. Positive allosteric modulator activity was analyzed as a concentration-dependent increase in the EC20 acetylcholine response. […]

Experiment [2] concerns the target T1, human mAChRM1. Briefly: mAChR M1 cell-based functional assay (calcium mobilization), positive allosteric modulator activity: increase in the EC20 acetylcholine response. As to conditions: for Emax: PAM mode; for EC50: read-out: PAM Activity Human M1 EC50.
Text: as §1, §2
Calcium flux was measured using the Functional Drug Screening System (FDSS) 6000 (Hamamatsu Corporation, Tokyo, Japan) as an increase in the fluorescent static ratio. Compounds were applied to cells (20 μL, 2×) using the automated system of the FDSS 6000 at 4 s into the 300 s protocol and the data were collected at 1 Hz. […] Agonist activity was analyzed as a concentration-dependent increase in calcium mobilization upon compound addition. Emax values for agonist activity are expressed relative to the maximum for acetylcholine. Positive allosteric modulator activity was analyzed as a concentration-dependent increase in the EC20 acetylcholine response. Antagonist activity was analyzed as a concentration-dependent decrease in the EC80 acetylcholine response. Concentration-response curves were generated using a four-parameter logistical equation in XLfit curve fitting software (IDBS, Bridgewater, NJ) for Excel (Microsoft, Redmond, WA) or Prism (GraphPad Software, Inc., San Diego, CA).
Activity (EC50 and Emax) was determined in the mAChRM1 cell-based functional assay as described above and the data are shown in Table 16. The compound numbers correspond to the compound numbers used in Table 15.

The mark [3] stands for this setting: increase in the EC20 acetylcholine response.

Each structure is given as a SMILES string.

As to `Cn1cc2c(-c3cc(F)c(CN4Cc5ncccc5C4=O)cc3F)ccc(C(C)(C)O)c2n1` [Compound 62, 6-(2,5-difluoro-4-(7-(2-hydroxypropan-2-yl)-2-methyl-2H-indazol-4-yl)benzyl)-6,7-dihydro-5H-pyrrolo[3,4-b]pyridin-5-one], the EC50 in experiment [1] was not below 10000 nM; in experiment [2] (setting [3]), 180 nM. Moreover, the figures for the Emax in experiment [1] and in experiment [2] were 30% and 73%, respectively.
Consider `CC(C)(O)c1ccc(-c2cc(F)c(CN3Cc4ncccc4C3=O)c(F)c2)cc1F` [Compound 7, 6-((3,3′,5-trifluoro-4′-(2-hydroxypropan-2-yl)-[1,1′-biphenyl]-4-yl)methyl)-6,7-dihydro-5H-pyrrolo[3,4-b]pyridin-5-one], for which the “Agonist Activity Human M1 EC50” value in experiment [1] is “inactive”. In experiment [2], the Emax was 71%. For the same compound, the EC50 in experiment [2] (setting [3]) was found to be 2670 nM.
On to `CC(C)(O)c1cc(-c2cc(F)c(CN3Cc4ncccc4C3=O)c(F)c2)cc2c1OCO2` [Compound 17, 6-(2,6-difluoro-4-(7-(2-hydroxypropan-2-yl)benzo[d][1,3]dioxol-5-yl)benzyl)-6,7-dihydro-5H-pyrrolo[3,4-b]pyridin-5-one], for which, in experiment [1], the “Agonist Activity Human M1 EC50” value was “inactive”. The “PAM Activity Human M1 EC50” value in experiment [2] (setting [3]) is “inactive”.
For the compound `Cn1cc2c(-c3cc(F)c(CN4Cc5cccc(F)c5C4=O)c(F)c3)ccc(C(C)(O)C(F)F)c2n1` (stereo not shown) [Compound 158, 2-(4-(7-(1,1-difluoro-2-hydroxypropan-2-yl)-2-methyl-2H-indazol-4-yl)-2,6-difluorobenzyl)-7-fluoroisoindolin-1-one], in experiment [1], the “Agonist Activity Human M1 EC50” value was “inactive”. Further, the Emax in experiment [2] came to 77%. Further, the EC50 in experiment [2] (setting [3]) worked out at 450 nM.
In the case of `Cc1cc(-c2cc(C(C)(C)O)nn2C)ccc1CN1Cc2ncccc2C1=O` [Compound 69, 6-(4-(3-(2-hydroxypropan-2-yl)-1-methyl-1H-pyrazol-5-yl)-2-methylbenzyl)-6,7-dihydro-5H-pyrrolo[3,4-b]pyridin-5-one], the “Agonist Activity Human M1 EC50” value in experiment [1] is “inactive”. In addition, in experiment [2], the maximal effect (Emax) was determined as 36%. Besides, the EC50 in experiment [2] (setting [3]) is not below 10000 nM.
In the case of `Cn1cc2c(-c3cc(F)c(CN4Cc5ncccc5C4=O)c(F)c3)ccc(C(C)(O)C3CC3)c2n1` (stereo not shown) [Compound 80, 6-(4-(7-(1-cyclopropyl-1-hydroxyethyl)-2-methyl-2H-indazol-4-yl)-2,6-difluorobenzyl)-6,7-dihydro-5H-pyrrolo[3,4-b]pyridin-5-one], the “Agonist Activity Human M1 EC50” value in experiment [1] is “inactive”. The maximum response (Emax) in experiment [2] is 83%. Besides, in experiment [2] (setting [3]), the EC50 worked out at 373 nM.
The corresponding values for `Cc1cc(-c2ccc(C(C)(C)O)c3ncccc23)cc(F)c1CN1Cc2ncccc2C1=O` [Compound 53, 6-(2-fluoro-4-(8-(2-hydroxypropan-2-yl)quinolin-5-yl)-6-methylbenzyl)-6,7-dihydro-5H-pyrrolo[3,4-b]pyridin-5-one] are “inactive”, 53% and 5870 nM.
The corresponding values for `[2H]C1([2H])c2ncccc2C(=O)N1Cc1ccc(-c2ccc(C(C)(C)O)c3nn(C)cc23)cc1C(C)C` [Compound 153, 6-(4-(7-(2-hydroxypropan-2-yl)-2-methyl-2H-indazol-4-yl)-2-isopropylbenzyl)-6,7-dihydro-5H-pyrrolo[3,4-b]pyridin-5-one-7,7-d2] are “inactive”, 35% and not below 10000 nM.
The corresponding values for `Cn1cc2c(C(C)(C)O)cc(-c3ccc(CN4Cc5ncccc5C4=O)c(F)c3)cc2n1` [Compound 21, 6-(2-fluoro-4-(4-(2-hydroxypropan-2-yl)-2-methyl-2H-indazol-6-yl)benzyl)-6,7-dihydro-5H-pyrrolo[3,4-b]pyridin-5-one] are “inactive”, 50% and not below 10000 nM.
With `CC(C)(O)c1cc(-c2cc(F)c(CN3Cc4ncccc4C3=O)c(F)c2)cc2cccnc12` [Compound 39, 6-(2,6-difluoro-4-(8-(2-hydroxypropan-2-yl)quinolin-6-yl)benzyl)-6,7-dihydro-5H-pyrrolo[3,4-b]pyridin-5-one], the EC50 in experiment [1] is not below 10000 nM; in experiment [2] (setting [3]) it was 472 nM. In addition, the Emax in experiment [1] is 8%; in experiment [2] it was 72%.
The corresponding values for `[2H]C1([2H])c2ncccc2C(=O)N1Cc1c(F)cc(-c2ccc(C(C)(C)O)c3nn(C)cc23)cc1C1CC1` (single isomer, unassigned) [Compound 143, 6-(2-cyclopropyl-6-fluoro-4-(7-(2-hydroxypropan-2-yl)-2-methyl-2H-indazol-4-yl)benzyl)-6,7-dihydro-5H-pyrrolo[3,4-b]pyridin-5-one-7,7-d2] are 5300 nM, 96 nM, 68% and 83%.
For the compound `Cn1cc(-c2cc(F)c(CN3Cc4ncccc4C3=O)c(F)c2)c(C(C)(C)O)n1` [Compound 28, 6-(2,6-difluoro-4-(3-(2-hydroxypropan-2-yl)-1-methyl-1H-pyrazol-4-yl)benzyl)-6,7-dihydro-5H-pyrrolo[3,4-b]pyridin-5-one], the “Agonist Activity Human M1 EC50” value in experiment [1] is “inactive”. The Emax in experiment [2] is 55%. Moreover, in experiment [2] (setting [3]), the EC50 is not below 10000 nM.
For `Cc1cc(-c2ccc(C(C)(C)O)cc2)cc(F)c1CN1Cc2cccnc2C1=O` [Compound 118, 6-((3-fluoro-4′-(2-hydroxypropan-2-yl)-5-methyl-[1,1′-biphenyl]-4-yl)methyl)-5,6-dihydro-7H-pyrrolo[3,4-b]pyridin-7-one], in experiment [2], the maximal effect (Emax) turned out to be 67%. Moreover, the EC50 in experiment [2] (setting [3]) was found to be 1650 nM.

The term EC50 denotes the concentration at which the effect is half-maximal. In general, Emax refers to the maximal effect, on the per cent scale that the assay sets.
